Results taken from patent US20130034522A1, “THERAPIES FOR TREATING HEPATITIS C VIRUS INFECTION” (priority 2010, published 2013).

Key:
[1] = test system: genotype 1 HCV; assay: Study VX-222-102 Part A: plasma HCV RNA reduction; assay type: in vivo, Hepatitis C virus
Procedure: In Part A of Study 102 subjects were randomized to VX-222 or placebo in a 6:2 (VX-222: placebo) allocation ratio to either Cohort 1, Cohort 2, Cohort 3, or Cohort 4. Subjects enrolled in Cohort 1, Cohort 2, and Cohort 3 were administered 250 mg, 500 mf, or 750 mg VX-222 or placebo twice daily (b.i.d.) for 3 days, respectively. Subjects enrolled in Cohort 4 were administered 1,500 mg VX-222 or placebo once daily (qd) for 3 days. Standard of care treatment, Peg-IFN-alpha-2a and RBV was offered to the subjects at the end of dosing in Part A for up to 48 weeks, if judged appropriate by the physician.
Additional results of Study VX-222-102 are described in FIGS. 2-8: Thirty-two treatment-naïve patients with chronic genotype 1 HCV infection were enrolled in the trial, including six patients in each dose group who received 250 mg of VX-222 BID, 500 mg of VX-222 BID, 750 mg of VX-222 BID, and 1,500 mg of VX-222 QD. Two patients received placebo in each of the four dosing groups, for a total of eight patients who received placebo. Part A of the trial was conducted at 10 centers in the United States, Canada and Argentina. Of the patients enrolled in the trial, 24 patients had genotype 1a HCV infection and eight patients had genotype 1b HCV infection. Six of the patients enrolled in the trial were African American, 25 were Caucasian and one was American Indian/Alaskan.
Multicenter, randomized, double-blinded, placebo-controlled, dose-ranging study • HCV genotype 1-infected patients • With no evidence of cirrhosis • ALT values <5×ULM • Plasma HCV RNA of >5 log10 IU/mL at screening • 4-arm comparative study (6:2 randomization VX-222: placebo) • Enrollment in this dosing—ranging study was sequential • 250 mg BID for 3 days • 500 mg BID for 3 days • 750 mg BID for 3 days • 1500 mg QD for 3 days.

[2] = PK parameters of VX-222 in Study 101 Part C and Study 102 Part A; assay type: in vivo, human
Procedure: In Part C of Study 101, VX-222 was administered as multiple doses of 750 mg b.i.d. to treatment-naïve subjects with chronic hepatitis C for 3 days. In addition, in Part A of Study 102, VX-222 was administered as multiple doses ranging from 250 mg to 750 mg BID and 1500 mg once a day to treatment-naïve subjects with chronic hepatitis C for 3 days.

[3] = test system: genotype 1 chronic hepatitis C infection; assay: Study 101 Part C: pharmacodynamics of VX-222 (HCV plasma RNA); assay type: in vivo, Hepatitis C virus; details: 750 mg b.i.d. for 3 consecutive days, treatment-naïve genotype 1 subjects
Procedure: In Part C of Study 101, VX-222 was administered as multiple doses of 750 mg b.i.d. to treatment-naïve subjects with chronic hepatitis C for 3 days. In addition, in Part A of Study 102, VX-222 was administered as multiple doses ranging from 250 mg to 750 mg BID and 1500 mg once a day to treatment-naïve subjects with chronic hepatitis C for 3 days. A primary objective of Part C of Study 101 was to assess the pharmacodynamics of VX-222 in treatment-naïve subjects with genotype 1 chronic hepatitis C infection. The final pharmacodynamic parameters of VX-222 administered at 750 mg b.i.d. for 3 consecutive days are outlined below: • The mean untransformed baseline (Day 1) HCV plasma RNA level was 4962600 IU/mL (log10=6.4927). • The mean maximum reduction from baseline calculated using the log10 predose HCV plasma RNA on Days 2 to 4 was −3.6784. The correlation between the predose RNA levels and the amplitude of the reduction in log 10 HCV RNA was relatively weak.

[4] = in vitro IC90 of VX-222
[5] = multiple doses, treatment-naïve chronic hepatitis C subjects

For `CC1CCC(C(=O)N(c2cc(C#CC(C)(C)C)sc2C(=O)O)C2CCC(O)CC2)CC1` (stereo not drawn) [VX-222, 5-(3,3-Dimethylbut-1-ynyl)-3-[(trans-4-hydroxycyclohexyl)-(4-trans methylcyclohexanecarbonyl)amino]thiophene-2-carboxylic acid], the “mean HCV RNA decline after three days of dosing” value (shortened to “mean HCV RNA decline”) ([1]; 250 mg BID) was 3.1 log10, the “Mean Viral Load Reduction at Day 4” value ([1]; 250 mg b.i.d. for 3 days) was −3.1 and the “mean HCV RNA decline” value ([1]; 500 mg BID) was 3.4 log10. For the same molecule, the “Mean Viral Load Reduction at Day 4” value ([1]; 500 mg b.i.d. for 3 days) was −3.4, the “mean HCV RNA decline” value ([1]; 750 mg BID) was 3.2 log10 and the “Mean Viral Load Reduction at Day 4” value ([1]; 750 mg b.i.d. for 3 days) was −3.2. For the same molecule, the “mean HCV RNA decline” value ([1]; 1,500 mg QD) was 3.4 log10, the “Mean Viral Load Reduction at Day 4” value ([1]; 1,500 mg QD for 3 days) was −3.4 and the “mean log HCV RNA decrease on Day 4” value ([1]; Cohort 1, 250 mg b.i.d.) was 3.1 log. For the same molecule, the “mean log HCV RNA decrease on Day 4” value ([1]; Cohort 2, 500 mg b.i.d.) was 3.4 log, the “mean log HCV RNA decrease on Day 4” value ([1]; Cohort 3, 750 mg b.i.d.) was 3.2 log and the “mean log HCV RNA decrease on Day 4” value ([1]; Cohort 4, 1,500 mg once a day) was 3.6 log. The “mean reductions in plasma HCV RNA” value ([1]; across the four VX-222 dose groups) was “greater than 3 log10”, the “VX-222 exposures versus dose” value ([2]; 250 to 750 mg b.i.d.) was “increased in an approximately dose proportional manner” and the “mean t1/2 across doses” value ([2]; all doses) was “remained unchanged across all doses”. For the same molecule, the “VX-222 concentrations at the end of the dosing intervals” value ([2]; all subjects) was over 319 ng/mL, the accumulation index ([2]; b.i.d. regimens) was “around 2 fold” and the half-life ([2]; human, in vivo) was about 5 h. The Tmax ([2]; human, in vivo, read-out: median tmax at steady state) was 2 to 6 h, the “exposures in treatment-naïve HCV subjects compared to healthy subjects” value ([2]; in vivo) was “around 2 fold” and the “accumulation index for AUC” value [2, 5] was 1.90 fold. For the same molecule, the “accumulation index for Cmax” value [2, 5] was 1.75 fold, the “time to steady state” value ([2]; repeated measure analyses) was at most 3 days and the “mean maximum reduction from baseline, log10 predose HCV plasma RNA on Days 2 to 4” value [3] was −3.6784. The “in vitro IC90” value [4] was 0.319 µg/mL.
